Measurements: patent US12264173B2 (GILEAD SCIENCES, INC., priority 2020, dated 2025)

Legend:
DENV2 replicon = test: DENV-2 Huh-7 Rep EC50 (replicon luminescence); assay type: cell-based; conditions: Dengue virus, DENV2, Huh-7, 48 h, read-out: DENV-2 REP Huh7 EC50, Table 3; Huh-7 DENV2 replicon cells, 48 hours
Summary of the method: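 EC50 derived from luminescence dose-response, normalised to DMSO-only 0% inhibition wells, after 1.5 h with EnduRen substrate. Compounds were first exposed for 48 h at 37° C to DENV2 replicon Huh-7 cells (5,000/well).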

RSV A2 = test: RSV NHBE EC50 (RSV A2 antiviral assay in NHBE cells); assay type: cell-based; conditions: human respiratory syncytial virus, NHBE, 96 h, Table 3; NHBE cells, RSV A2, 4 days; read-out: RSV NHBE EC50
Summary of the method: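 Luminescent ATP-based viability was recorded in RSV A2-infected normal human bronchial epithelial cells exposed to serially diluted compound (3-fold steps, 0.05% DMSO). Infection used 1×10^4.5 TCID/mL, with a 4-day incubation at 37° C.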

HRV16 = HRV16 HeLa EC50 (cytopathic effect in H1-HeLa cells); assay type: cell-based; conditions: 96 h, Table 3; H1-HeLa cells, 96 h; read-out: HRV16 HeLa EC50
Summary of the method: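 Read-out is luminescent cell viability (CellTiter-Glo) after 96 h of infection at 33 °C, scaled between uninfected and infected-untreated wells. Before infection with titrated virus, compounds went onto H1-HeLa cells as triplicate 3-fold dilution series.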

RSV strain A2 = test: microbe, parasite or virus in culture; assay type: cell-based; conditions: human respiratory syncytial virus, HEp-2, 96 h, Table 3; HEp-2 cells, RSV A2, 4 days; read-out: RSV HEp-2 EC50
Summary of the method: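 Cytopathic-effect protection assay: HEp-2 cells (50,000/mL) infected with pre-titered RSV A2 onto 3-fold serial compound dilutions, incubated 4 days at 37° C. Cell viability read by CellTiter-Glo luminescence; percent inhibition derived against 0% and 100% virus-inhibition controls.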

[1] = tested on: Dengue 2, New Guinea strain (NGC); test: DENV moDC EC50 (qPCR in human monocyte-derived dendritic cells); assay type: cell-based; conditions: Dengue virus, Dendritic cell; Table 3; human moDCs, 48 hours
Procedure: Human monocyte-derived dendritic cells (moDCs) were derived from CD14+ monocytes (AllCells) cultured in Human Mo-DC Differentiation medium containing GM-CSF and IL-4 (Miltenyi Biotec). On day 7, moDCs were harvested by mechanical disruption, washed and suspended in serum-free RPMI. moDCs were infected with Vero-derived Dengue 2, New Guinea strain (NGC) at a MOI=0.1 for two hours in serum-free RPMI with gentle agitation at 37° C. Cells were washed and resuspended in 10% serum-containing RPMI (Gibco, supplemented with sodium pyruvate, NEAA, Penicillin-Streptomycin). […] were plated in triplicate in 96-well plates with compounds dispensed at graded doses (Hewlett-Packard D300 Digital Dispenser). All wells were normalized to 0.25% DMSO. At 48 hours, cells were washed with 1×PBS and all supernatants removed. Total RNA was extracted using RNEasy 96 plates (Qiagen) and used to generate first-strand cDNA using XLT cDNA 5× Supermix (QuantaBio). cDNA was used as a template in a Taqman qPCR duplex reaction specific to DENV2 viral and GAPDH gene expression. EC50 values were determined using Prism Graphpad software, with normalization to a positive control and no compound negative control wells.

RSV RNP complexes = biological target: T1, RSV RNP complexes (Human respiratory syncytial virus A, UniProt P28887); test: RSV RNP assay (transcription); assay type: biochemical, RSV A2
T1 construct: The supernatant (S3) fraction, containing the enriched RSV RNP complexes, was collected; endogenous in cells; host or cells: HEp-2 cells infected with RSV A2; detergent-extracted S3 fraction
Procedure: RSV ribonucleoprotein (RNP) complexes were prepared from a method modified from Mason et al. (1). HEp-2 cells were plated at a density of 7.1×10^4 cells/cm^2 in MEM+10% fetal bovine serum (FBS) and allowed to attach overnight at 37° C. (5% CO2). Following attachment, the cells were infected with RSV A2 (MOI=5) in 35 mL MEM+2% FBS. At 20 hours post-infection, the media was replaced with MEM+2% FBS supplemented with 2 μg/mL actinomycin D and returned to 37° C. for one hour. The cells were then washed once with PBS and treated with 35 mL of PBS+250 μg/mL lyso-lecithin for one minute, after which all liquid was aspirated. […] The supernatant (S3) fraction, containing the enriched RSV RNP complexes, was collected and the protein concentration determined by UV absorbance at 280 nm. […]
Transcription reactions contained 25 μg of crude RSV RNP complexes in 30 μL of reaction buffer [50 mM TRIS-acetate (pH 8.0), 120 mM potassium acetate, 5% glycerol, 4.5 mM MgCl2, 3 mM DTT, 2 mM ethyleneglycol-bis(2-aminoethylether)-tetraacetic acid (EGTA), 50 μg/mL BSA, 2.5 U RNasin (Promega), ATP, GTP, UTP, CTP and 1.5 uCi [α-32P] […] The radiolabled nucleotide used in the transcription assay was selected to match the nucleotide analog being evaluated for inhibition of RSV RNP transcription. […]

DENV2 NS5 = DENV2 NS5 (Dengue virus type 2, UniProt P14340); test: DENV Pol IC50 (DENV2-NS5 polymerase assay); assay type: biochemical; conditions: nucleotide triphosphate
Procedure: A 244 nucleotide secondary structureless heteropolymeric RNA (sshRNA) with sequence 5′-(UCAG)20(UCCAAG)14(UCAG)20-3′ (SEQ ID NO: 1) is used as the template with 5′-CUG-3′ primer in the DENV2-NS5 polymerase assay. Six two-fold dilutions of compounds starting from 200 nM and no inhibitor control are plated in 96-well plates. 100 nM DENV2 NS5 is preincubated for 5 minutes at room temperature in a reaction mixture containing 40 mM Tris-HCl (pH 7.5), 10 mM NaCl, 3 mM DTT, 0.2 unit/μL RNasin Plus RNase Inhibitor, 200 ng/μL sshRNA, 20 μM CUG and 2 mM MgCl2. Enzyme mix is added to compound dilutions and reactions initiated by the addition of a mixture containing 20 μM of three natural NTP plus 2 μM of analog:base matched competing natural NTP containing 1:100 α-33P-NTP. After 90 minutes at 30° C., 5 μL of the reaction mixtures are spotted on DE81 anion exchange paper. Filter papers are washed three times with Na2HPO4 (125 mM, pH 9) for 5 minutes, rinsed with water and ethanol, then air-dried and exposed to phosphorimager. Synthesized RNA is quantified using Typhoon Trio Imager and Image Quant TL Software and reaction rates are calculated by linear regression using GraphPad Prism 5.0. IC50 values are calculated in Prism by non-linear regression analysis using the dose-response (variable slope) equation (four-parameter logistic equation): Y=Bottom+(Top-Bottom)/(1+10^((Log IC50−X)*HillSlope)).

POLRMT [2] = biological target: T2, POLRMT (Homo sapiens, UniProt O00411); test: Single nucleotide incorporation by human mitochondrial RNA polymerase (POLRMT); assay type: biochemical; conditions: nucleotide triphosphate
Procedure: A mixture of MTCN buffer (50 mM MES, 25 mM Tris-HCl, 25 mM CAPS, and 50 mM NaCl, pH 7.5), 200 nM 5′^32 P-R12/D18, 10 mM MgCl2, 1 mM DTT, and 376 nM POLRMT was preincubated at 30° C. for 1 min. The reaction was started by addition of 500 μM (final) natural NTP or NTP analogs. At selected time points, the reaction mixture was removed and quenched with gel loading buffer containing 100 mM EDTA, 80% formamide, and bromophenol blue, and heated at 65° C. for 5 min. The samples were run on a 20% polyacrylamide gel (8 M urea), and the product formation was quantified using Typhoon Trio Imager and Image Quant TL Software (GE Healthcare, Piscataway, NJ). The rate of single nucleotide incorporation by mt RNA pol was calculated by fitting the product formation using the single exponential equation: [1R13]=A(1−e^−kt), where [1R13] represents the amount (in nM) of the elongated product formed, t represents the reaction time, k represents the observed rate, and A represents the amplitude of the exponential.

POLRMT [3] = biological target: T2, POLRMT; test: Inhibition of human mitochondrial RNA polymerase (POLRMT); assay type: biochemical; conditions: nucleotide triphosphate
Procedure: All reaction mixtures contained 50 mM Tris-HCl buffer (pH 8.0), 0.2 mg/ml BSA, 2 mM DTT, 0.05 mg/ml activated fish sperm DNA, 10 mM MgCl2, 1.3 μCi [α-^33P]dTTP (3,000 Ci/mmol), and 2 μMeach of dATP, dGTP, and TTP. The optimal enzyme concentrations were chosen to be in the linear range of enzyme concentration ([E]) versus activity, and the reaction time was selected to ensure that 10% of the substrate was consumed. All reactions were run at 37° C. […] The reactions were heated to 32° C. and initiated by adding 2.5 μM each of the four natural NTPs and 1.5 μCi of [^33P]GTP. After incubation for 30 min at 32° C., the reactions were spotted on DE81 paper before being processed for quantification.

T2 sequence (O00411 42-1230): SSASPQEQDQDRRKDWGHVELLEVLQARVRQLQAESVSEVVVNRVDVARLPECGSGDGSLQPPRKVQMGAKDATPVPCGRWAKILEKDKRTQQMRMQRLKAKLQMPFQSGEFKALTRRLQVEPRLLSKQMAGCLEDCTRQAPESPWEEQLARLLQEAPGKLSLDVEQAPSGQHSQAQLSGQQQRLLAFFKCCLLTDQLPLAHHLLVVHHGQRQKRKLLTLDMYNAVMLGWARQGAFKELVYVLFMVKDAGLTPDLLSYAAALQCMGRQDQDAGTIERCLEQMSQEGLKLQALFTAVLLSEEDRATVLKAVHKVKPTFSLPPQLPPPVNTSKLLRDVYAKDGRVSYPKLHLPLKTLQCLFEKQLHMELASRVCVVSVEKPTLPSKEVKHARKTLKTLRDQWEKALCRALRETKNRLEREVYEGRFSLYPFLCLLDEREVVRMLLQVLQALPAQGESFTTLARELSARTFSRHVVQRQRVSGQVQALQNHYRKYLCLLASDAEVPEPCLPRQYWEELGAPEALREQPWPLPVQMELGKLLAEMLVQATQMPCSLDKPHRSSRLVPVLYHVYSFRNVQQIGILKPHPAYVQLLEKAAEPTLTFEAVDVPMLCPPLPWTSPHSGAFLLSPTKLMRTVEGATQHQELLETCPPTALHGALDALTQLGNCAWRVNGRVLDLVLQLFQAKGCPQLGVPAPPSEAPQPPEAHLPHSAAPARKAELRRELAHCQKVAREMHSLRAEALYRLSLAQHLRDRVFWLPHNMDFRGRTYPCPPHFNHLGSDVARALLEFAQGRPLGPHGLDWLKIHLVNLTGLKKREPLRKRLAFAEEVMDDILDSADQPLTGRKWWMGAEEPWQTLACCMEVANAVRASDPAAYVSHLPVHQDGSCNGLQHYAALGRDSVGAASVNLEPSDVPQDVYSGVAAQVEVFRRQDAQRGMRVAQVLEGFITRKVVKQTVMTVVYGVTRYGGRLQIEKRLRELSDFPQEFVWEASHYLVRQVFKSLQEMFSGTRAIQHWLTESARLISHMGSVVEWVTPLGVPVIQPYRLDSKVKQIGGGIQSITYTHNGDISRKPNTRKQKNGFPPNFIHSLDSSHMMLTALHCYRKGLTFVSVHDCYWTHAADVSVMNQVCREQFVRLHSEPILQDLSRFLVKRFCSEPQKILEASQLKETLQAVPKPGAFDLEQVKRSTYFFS
T1 sequence (P03421 whole entry): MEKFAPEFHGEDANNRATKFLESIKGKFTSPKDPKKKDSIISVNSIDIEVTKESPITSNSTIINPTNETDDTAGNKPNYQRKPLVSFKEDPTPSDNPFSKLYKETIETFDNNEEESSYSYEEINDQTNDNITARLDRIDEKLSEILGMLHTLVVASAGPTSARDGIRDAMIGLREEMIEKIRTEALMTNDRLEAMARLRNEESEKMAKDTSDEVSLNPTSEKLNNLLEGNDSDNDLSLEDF
T1 sequence (P28887 whole entry): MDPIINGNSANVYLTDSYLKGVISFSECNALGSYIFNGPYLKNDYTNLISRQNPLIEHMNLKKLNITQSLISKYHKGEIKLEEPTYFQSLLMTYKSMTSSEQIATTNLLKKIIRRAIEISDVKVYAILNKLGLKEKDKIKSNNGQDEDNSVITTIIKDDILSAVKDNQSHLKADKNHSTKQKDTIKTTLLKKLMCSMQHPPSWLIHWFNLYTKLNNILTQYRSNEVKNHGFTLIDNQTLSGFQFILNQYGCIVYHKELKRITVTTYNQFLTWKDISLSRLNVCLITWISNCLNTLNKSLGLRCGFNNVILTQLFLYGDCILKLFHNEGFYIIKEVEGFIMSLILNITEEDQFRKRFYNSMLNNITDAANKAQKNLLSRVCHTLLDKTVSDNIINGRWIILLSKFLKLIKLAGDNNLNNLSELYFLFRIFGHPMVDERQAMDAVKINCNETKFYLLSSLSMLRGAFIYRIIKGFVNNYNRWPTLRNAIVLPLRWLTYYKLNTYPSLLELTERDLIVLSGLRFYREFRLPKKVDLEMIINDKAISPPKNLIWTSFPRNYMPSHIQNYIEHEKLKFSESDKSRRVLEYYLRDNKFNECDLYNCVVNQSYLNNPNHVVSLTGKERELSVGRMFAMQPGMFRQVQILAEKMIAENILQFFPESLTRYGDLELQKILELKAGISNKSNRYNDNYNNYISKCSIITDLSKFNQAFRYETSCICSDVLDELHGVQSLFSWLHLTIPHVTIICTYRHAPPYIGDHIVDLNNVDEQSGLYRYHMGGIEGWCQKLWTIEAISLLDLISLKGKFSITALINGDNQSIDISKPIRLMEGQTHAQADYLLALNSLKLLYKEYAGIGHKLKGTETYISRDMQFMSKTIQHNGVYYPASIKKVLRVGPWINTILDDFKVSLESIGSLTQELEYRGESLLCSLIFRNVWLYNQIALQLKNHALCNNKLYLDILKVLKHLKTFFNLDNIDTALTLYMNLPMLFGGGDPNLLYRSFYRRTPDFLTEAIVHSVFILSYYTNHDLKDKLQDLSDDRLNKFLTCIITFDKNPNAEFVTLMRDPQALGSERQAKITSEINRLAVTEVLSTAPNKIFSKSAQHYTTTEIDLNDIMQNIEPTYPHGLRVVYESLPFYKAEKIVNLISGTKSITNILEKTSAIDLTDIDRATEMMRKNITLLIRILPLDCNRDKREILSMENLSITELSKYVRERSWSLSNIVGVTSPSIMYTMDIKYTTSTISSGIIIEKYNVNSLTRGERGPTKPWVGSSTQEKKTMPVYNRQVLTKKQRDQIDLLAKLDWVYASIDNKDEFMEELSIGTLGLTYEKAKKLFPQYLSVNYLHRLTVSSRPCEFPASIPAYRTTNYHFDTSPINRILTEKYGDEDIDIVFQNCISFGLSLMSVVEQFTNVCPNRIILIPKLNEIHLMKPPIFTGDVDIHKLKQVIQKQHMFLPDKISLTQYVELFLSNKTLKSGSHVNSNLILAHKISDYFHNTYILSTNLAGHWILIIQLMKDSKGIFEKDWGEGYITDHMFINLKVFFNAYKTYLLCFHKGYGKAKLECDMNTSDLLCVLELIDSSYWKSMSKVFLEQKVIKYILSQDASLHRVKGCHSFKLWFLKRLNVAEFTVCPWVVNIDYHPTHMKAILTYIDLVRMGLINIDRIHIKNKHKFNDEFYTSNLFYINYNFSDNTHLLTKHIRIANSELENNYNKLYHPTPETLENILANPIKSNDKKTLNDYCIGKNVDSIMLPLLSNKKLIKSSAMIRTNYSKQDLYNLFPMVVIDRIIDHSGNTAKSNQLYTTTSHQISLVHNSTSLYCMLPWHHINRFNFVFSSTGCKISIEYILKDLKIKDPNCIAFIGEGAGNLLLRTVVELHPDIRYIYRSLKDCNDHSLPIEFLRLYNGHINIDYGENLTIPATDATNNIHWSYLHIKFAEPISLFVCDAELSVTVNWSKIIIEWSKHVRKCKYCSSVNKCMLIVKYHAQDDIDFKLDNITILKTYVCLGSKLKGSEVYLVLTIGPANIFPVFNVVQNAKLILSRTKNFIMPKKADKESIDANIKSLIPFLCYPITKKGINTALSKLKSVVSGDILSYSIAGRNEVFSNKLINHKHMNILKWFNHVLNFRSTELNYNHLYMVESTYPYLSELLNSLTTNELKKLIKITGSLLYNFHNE

SMILES | EC50 (DENV2 replicon) [nM] | EC50 (RSV A2) [nM] | EC50 (HRV16) [nM] | EC50 (RSV strain A2) [nM] | EC50 [1] [nM] | IC50 (RSV RNP complexes) [nM] | IC50 (DENV2 NS5) [nM] | POLRMT SNI % (POLRMT [2]) [%] | IC50 (POLRMT [3]) [nM]
CCC(=O)O[C@H]1[C@H](c2ccc3c(N)ncnn23)O[C@](C#N)(COP(=O)(N[C@@H](C)C(=O)OCC2CCC2)N[C@@H](C)C(=O)OCC2CCC2)[C@H]1OC(=O)CC [Example 125, ((2R,3S,4R,5S)-5-(4-aminopyrrolo[2,1-f][1,2,4]triazin-7-yl)-2-cyano-3,4-dipropionatetetrahydrofuran-2-yl)methyl bis-cyclobutylmethyl L-alaninate phosphate] | 48700 | 79 | 2030 | 700 | 20700 | – | – | – | –
Nc1ncnn2c([C@@H]3O[C@](CCl)(COP(=O)(O)OP(=O)(O)OP(=O)(O)O)[C@@H](O)[C@H]3O)ccc12 [—CH2Cl] | – | – | – | – | – | 1100 | 7100 | 0.11 | –
N#C[C@]1(COP(=O)(O)OP(=O)(O)OP(=O)(O)O)O[C@@H](c2ccc3c(N)ncnn23)[C@H](O)[C@@H]1O [—CN] | – | – | – | – | – | 44 | 830 | 0.6 | > 200000
[N-]=[N+]=N[C@]1(COP(=O)(O)OP(=O)(O)OP(=O)(O)O)O[C@@H](c2ccc3c(N)ncnn23)[C@H](O)[C@@H]1O [—N3] | – | – | – | – | – | – | 140 | 132 | 900
